# Earlier results as cited in patent US8207181B2, “Substituted dihydro, trihydro and tetrahydro cycloalkyloxazolopyrimidinones, preparation and use thereof” (Sanofi, priority 2008, dated 2012).
# What was measured:
# [1] = tested on: healthy human subjects; details: pretreatment
# [2] = tested on: pentylenetetrazole- and picrotoxin-induced seizures
# [3] = tested on: rat
# [4] = tested on: mice
# [5] = tested on: animal models; details: some animal models
# [6] = tested on: DBA/2 mice
# [7] = tested on: schizophrenia; details: compared to placebo
smiles,measurement,setting,value
N[C@@]1(C(=O)O)CC[C@H]2[C@H](C(=O)O)[C@H]21 [LY354740],effect on ketamine disruption of working memory,[1],"attenuation of the disruptive effects of the NMDA glutamate receptor antagonist, ketamine, on working memory"
same,effect on chemically induced seizures,[2],attenuates pentylenetetrazole- and picrotoxin-induced seizures
N[C@@]1(C(=O)O)CO[C@H]2[C@H](C(=O)O)[C@H]21 [LY379268],effect on REM sleep and fast EEG,[3],suppresses rapid eye movement (REM) sleep and fast EEG
Cc1c(OCc2cccc(-c3ccc(C(=O)O)cc3)c2)cc2c(c1C)C(=O)C(C1CCCC1)C2 (stereo not shown) [biphenyl-indanone A],antipsychotic- and anxiolytic-like effects,[4],antipsychotic- and anxiolytic-like effects
N[C@]1(C(=O)O)[C@H]2[C@@H](C[C@H]1OCc1ccc(Cl)c(Cl)c1)[C@]2(F)C(=O)O [MGS0039],antidepressant-like effects,[5],dose-dependent antidepressant-like effects
N[C@H](C(=O)O)c1ccc(C(=O)O)c(O)c1 [(S)-4-carboxy-3-hydroxyphenylglycine],protection against audiogenic seizures,[6],protects against audiogenic seizures
CSCC[C@H](N)C(=O)N[C@@]1(C(=O)O)CS(=O)(=O)[C@H]2[C@H](C(=O)O)[C@H]21 [LY2140023],improvement in positive and negative symptoms of schizophrenia,[7],statistically significant improvements in both positive and negative symptoms of schizophrenia
